Legend:
Assay in all cases: X-ray crystal structure, […] A
Assay type in all cases: binding
[1] = target: T1, ScRIPK-KD (ScRIPK kinase domain) (Saccharum hybrid cultivar, UniProt A0ACD6BAX3, S187A/T188A); conditions: crystallised in 0.1 M HEPES pH 7.5, 4.3 M sodium chloride, 291 K; active site
T1 construct: gene NCGR_LOCUS634; kinase domain 72-378 of 425 aa; PRSF-duet vector, Ni-NTA purified from E. coli BL21(DE3); wild type autophosphorylated at T250, S253, T254; one kinase domain per asymmetric unit
T1 sequence (A0ACD6BAX3 entry or part of it S187A/T188A): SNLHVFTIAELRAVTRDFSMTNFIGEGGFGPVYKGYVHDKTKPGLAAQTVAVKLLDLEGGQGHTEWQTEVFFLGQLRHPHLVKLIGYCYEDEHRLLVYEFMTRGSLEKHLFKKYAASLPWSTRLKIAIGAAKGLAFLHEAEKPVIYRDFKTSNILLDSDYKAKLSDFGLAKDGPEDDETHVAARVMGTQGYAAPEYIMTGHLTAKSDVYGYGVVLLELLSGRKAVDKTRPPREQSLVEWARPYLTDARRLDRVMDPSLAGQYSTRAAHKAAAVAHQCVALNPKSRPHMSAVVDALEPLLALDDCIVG

[2] = target: T2, ScRIPK-KD (ScRIPK kinase domain) (Saccharum hybrid cultivar, UniProt A0ACD6BAX3); conditions: Mg2+ bound; crystallised in 0.1 M HEPES pH 7.5, 40% v/v PEG 400, 291 K; active site
T2 construct: gene NCGR_LOCUS634; kinase domain 72-378 of 425 aa; PRSF-duet vector, Ni-NTA purified from E. coli BL21(DE3); wild type autophosphorylated at T250, S253, T254; one kinase domain per asymmetric unit
T2 sequence (A0ACD6BAX3 entry or part of it): as the sequence (A0ACD6BAX3 entry or part of it S187A/T188A) above, with A182S, A183T counted along it

[3] = target: T3, ScRIPK-KD (ScRIPK kinase domain) (Saccharum hybrid cultivar, UniProt A0ACD6BAX3, K58R); conditions: crystallised in 0.1 M HEPES pH 7.5, 4.3 M sodium chloride, 291 K; active site
T3 construct: gene NCGR_LOCUS634; kinase domain 72-378 of 425 aa; PRSF-duet vector, Ni-NTA purified from E. coli BL21(DE3); wild type autophosphorylated at T250, S253, T254; one kinase domain per asymmetric unit
T3 sequence (A0ACD6BAX3 entry or part of it K58R): as the sequence (A0ACD6BAX3 entry or part of it S187A/T188A) above, with K53R, A182S, A183T counted along it

SMILES	X-ray crystal structure, 1.95 A [1]	X-ray crystal structure, 2.10 A [2]	X-ray crystal structure, 1.68 A [3]
Nc1ncnc2c1ncn2[C@@H]1O[C@H](COP(=O)(O)OP(=O)(O)O)[C@@H](O)[C@H]1O [ADP]	In the ScRIPK-KD S253A|T254A mutant structure, Y169 and E170–M172 formed a deep cavity		
Nc1ncnc2c1ncn2[C@@H]1O[C@H](COP(=O)(O)OP(=O)(O)OP(=O)(O)O)[C@@H](O)[C@H]1O [ATP]		The ScRIPK-ATP protein complex crystal was successfully obtained in the reservoir solution	the mutant protein ScRIPK-KD K124R was purified and crystallized with ATP

Reference: PMC10248867, “Receptor-like cytoplasmic kinase ScRIPK in sugarcane regulates disease resistance and drought tolerance in Arabidopsis” (Frontiers in Plant Science, 2023)
